In ChEMBL document CHEMBL4680352, “Rational design and synthesis of 6-aryl-6H-benzo[c]chromenes as non-steroidal progesterone receptor antagonists for use against cancers” (Bioorg Med Chem, 2021):
Each block holds one compound with its values, some of them ahead of it.

Assays:
A549 [1] = test: Antiproliferative activity against human A549 cells assessed as inhibition of cell viability at 20 uM after 72 hrs by CCK-8 assay relative to control; format: functional
BGC-823 [2] = test: Antiproliferative activity against human BGC-823 cells assessed as inhibition of cell viability at 20 uM after 72 hrs by CCK-8 assay relative to control; format: functional
PC-3 [3] = test: Antiproliferative activity against human PC-3 cells assessed as inhibition of cell viability at 20 uM after 72 hrs by CCK-8 assay relative to control; format: functional
MDA-MB-231 [4] = test: Antiproliferative activity against human MDA-MB-231 cells assessed as inhibition of cell viability at 20 uM after 72 hrs by CCK-8 assay relative to control; format: functional
MCF7 [5] = test: Antiproliferative activity against human MCF7 cells assessed as inhibition of cell viability at 20 uM after 72 hrs by CCK-8 assay relative to control; format: functional
MCF7 [6] = test: Antiproliferative activity against human MCF7 cells assessed as inhibition of cell viability after 72 hrs by CCK-8 assay; format: functional, cell-based; details: MCF7, 72 h
A549 [7] = test: Antiproliferative activity against human A549 cells assessed as inhibition of cell viability after 72 hrs by CCK-8 assay; format: functional, cell-based; details: A549, 72 h
BGC-823 [8] = test: Antiproliferative activity against human BGC-823 cells assessed as inhibition of cell viability after 72 hrs by CCK-8 assay; format: functional, cell-based; details: BGC-823, 72 h
PC-3 [9] = test: Antiproliferative activity against human PC-3 cells assessed as inhibition of cell viability after 72 hrs by CCK-8 assay; format: functional, cell-based; details: PC-3, 72 h
MDA-MB-231 [10] = test: Antiproliferative activity against human MDA-MB-231 cells assessed as inhibition of cell viability after 72 hrs by CCK-8 assay; format: functional, cell-based; details: MDA-MB-231, 72 h
MCF-10A = test: Cytotoxicity against human MCF-10A cells assessed as inhibition of cell viability after 72 hrs by CCK-8 assay; format: cell-based
[11] = Selectivity index, ratio of IC50 for human MCF-10A cells to IC50 for human MCF-7 cells

Compound: COc1ccc(C2Oc3ccc(OC)cc3-c3ccccc32)cc1 (stereo unspecified)
inhibition at 20 µM (A549 [1]): 36.2%
inhibition at 20 µM (BGC-823 [2]): 42.5%
inhibition at 20 µM (PC-3 [3]): 36.3%
inhibition at 20 µM (MDA-MB-231 [4]): 28.2%
inhibition at 20 µM (MCF7 [5]): 34.7%

Compound: COc1ccc2c(c1)-c1ccccc1OC2c1ccc(Cl)cc1 (stereo unspecified)
inhibition at 20 µM (A549 [1]): 36%
inhibition at 20 µM (BGC-823 [2]): 37%
inhibition at 20 µM (PC-3 [3]): 41.1%
inhibition at 20 µM (MDA-MB-231 [4]): 32.4%
inhibition at 20 µM (MCF7 [5]): 35.6%

Compound: c1ccc(C2Oc3ccccc3-c3ccccc32)cc1 (stereo unspecified)
inhibition at 20 µM (A549 [1]): 23.8%
inhibition at 20 µM (BGC-823 [2]): 18.8%
inhibition at 20 µM (PC-3 [3]): 19.2%
inhibition at 20 µM (MDA-MB-231 [4]): 27.2%
inhibition at 20 µM (MCF7 [5]): 25.3%

Compound: COc1ccc(C2Oc3ccc(C)cc3-c3ccccc32)cc1 (stereo unspecified)
inhibition at 20 µM (A549 [1]): 29.4%
inhibition at 20 µM (BGC-823 [2]): 27.6%
inhibition at 20 µM (PC-3 [3]): 36.3%
inhibition at 20 µM (MDA-MB-231 [4]): 23.2%
inhibition at 20 µM (MCF7 [5]): 32.9%

Compound: COc1ccc2c(c1)-c1ccccc1OC2c1ccccc1 (stereo unspecified)
inhibition at 20 µM (A549 [1]): 32%
inhibition at 20 µM (BGC-823 [2]): 30.5%
inhibition at 20 µM (PC-3 [3]): 31.8%
inhibition at 20 µM (MDA-MB-231 [4]): 30.6%
inhibition at 20 µM (MCF7 [5]): 25.6%

Compound: CCOc1ccc(C2Oc3ccccc3-c3cc(OC)ccc32)cc1 (stereo unspecified)
inhibition at 20 µM (A549 [1]): 40.5%
inhibition at 20 µM (BGC-823 [2]): 26.6%
inhibition at 20 µM (PC-3 [3]): 45%
inhibition at 20 µM (MDA-MB-231 [4]): 28.3%
inhibition at 20 µM (MCF7 [5]): 41.1%

Compound: COc1ccc(C2Oc3ccccc3-c3cc(OC)ccc32)cc1 (stereo unspecified)
inhibition at 20 µM (A549 [1]): 49.6%
inhibition at 20 µM (BGC-823 [2]): 50.6%
inhibition at 20 µM (PC-3 [3]): 55.4%
inhibition at 20 µM (MDA-MB-231 [4]): 52.7%
inhibition at 20 µM (MCF7 [5]): 59.6%

Compound: COc1ccc2c(c1)-c1ccccc1OC2c1cccs1 (stereo unspecified)
inhibition at 20 µM (A549 [1]): 43.9%
inhibition at 20 µM (BGC-823 [2]): 28.2%
inhibition at 20 µM (PC-3 [3]): 53.7%
inhibition at 20 µM (MDA-MB-231 [4]): 38.6%
inhibition at 20 µM (MCF7 [5]): 53.1%

IC50 (MCF7 [6]): 24 µM
Compound: CC#C[C@]1(O)CC[C@H]2[C@@H]3CCC4=CC(=O)CCC4=C3[C@@H](c3ccc(N(C)C)cc3)C[C@@]21C [MIFEPRISTONE]

IC50 (A549 [7]): 17 µM
IC50 (BGC-823 [8]): 9.23 µM
IC50 (PC-3 [9]): 7.86 µM
IC50 (MDA-MB-231 [10]): 22.5 µM
IC50 (MCF7 [6]): 15.2 µM
Compound: COc1ccc2c(c1)-c1ccccc1OC2c1cccc(OC)c1OC (stereo unspecified)
IC50 (MCF-10A): 47.9 µM
Ratio IC50 [11]: 3.15

IC50 (A549 [7]): 11.7 µM
IC50 (BGC-823 [8]): 8.99 µM
IC50 (PC-3 [9]): 10.1 µM
IC50 (MDA-MB-231 [10]): 13.8 µM
IC50 (MCF7 [6]): 9.53 µM
Compound: COc1cccc(C2Oc3ccccc3-c3cc(OC)c(OC)cc32)c1 (stereo unspecified)
IC50 (MCF-10A): 60.3 µM
Ratio IC50 [11]: 6.33

Compound: COc1ccc(C2Oc3ccccc3-c3ccccc32)cc1 (stereo unspecified)
inhibition at 20 µM (A549 [1]): 29.9%
inhibition at 20 µM (BGC-823 [2]): 34.1%
inhibition at 20 µM (PC-3 [3]): 37%
inhibition at 20 µM (MDA-MB-231 [4]): 21.2%
inhibition at 20 µM (MCF7 [5]): 34.4%

IC50 (A549 [7]): 8.54 µM
IC50 (BGC-823 [8]): 8.52 µM
IC50 (PC-3 [9]): 9.62 µM
IC50 (MDA-MB-231 [10]): 7.41 µM
IC50 (MCF7 [6]): 9.29 µM
Compound: COc1ccc2c(c1)-c1ccccc1OC2c1ccccc1C (stereo unspecified)
inhibition at 20 µM (A549 [1]): 60.9%
inhibition at 20 µM (BGC-823 [2]): 64.2%
inhibition at 20 µM (PC-3 [3]): 66%
inhibition at 20 µM (MDA-MB-231 [4]): 59.8%
inhibition at 20 µM (MCF7 [5]): 69.7%
IC50 (MCF-10A): 44.6 µM
Ratio IC50 [11]: 4.8

Compound: COc1ccc(C2Oc3cc(C)ccc3-c3ccccc32)cc1 (stereo unspecified)
inhibition at 20 µM (A549 [1]): 22.6%
inhibition at 20 µM (BGC-823 [2]): 32.9%
inhibition at 20 µM (PC-3 [3]): 38.1%
inhibition at 20 µM (MDA-MB-231 [4]): 25.6%
inhibition at 20 µM (MCF7 [5]): 30.3%

Compound: COc1ccc2c(c1)-c1ccccc1OC2c1ccc(SC)cc1 (stereo unspecified)
inhibition at 20 µM (A549 [1]): 31.8%
inhibition at 20 µM (BGC-823 [2]): 39.4%
inhibition at 20 µM (PC-3 [3]): 39.7%
inhibition at 20 µM (MDA-MB-231 [4]): 35.3%
inhibition at 20 µM (MCF7 [5]): 41.4%

Compound: Cc1ccc(C2Oc3ccccc3-c3ccccc32)cc1 (stereo unspecified)
inhibition at 20 µM (A549 [1]): 23.5%
inhibition at 20 µM (BGC-823 [2]): 25%
inhibition at 20 µM (PC-3 [3]): 26%
inhibition at 20 µM (MDA-MB-231 [4]): 23.7%
inhibition at 20 µM (MCF7 [5]): 30.2%

Compound: COc1ccc(C2Oc3ccccc3-c3ccc(OC)cc32)cc1 (stereo unspecified)
inhibition at 20 µM (A549 [1]): 43.6%
inhibition at 20 µM (BGC-823 [2]): 47.1%
inhibition at 20 µM (PC-3 [3]): 44.7%
inhibition at 20 µM (MDA-MB-231 [4]): 43.2%
inhibition at 20 µM (MCF7 [5]): 45.5%

Compound: COc1ccc2c(c1)-c1ccccc1OC2c1ccc(C)cc1 (stereo unspecified)
inhibition at 20 µM (A549 [1]): 31.1%
inhibition at 20 µM (BGC-823 [2]): 37.4%
inhibition at 20 µM (PC-3 [3]): 38.9%
inhibition at 20 µM (MDA-MB-231 [4]): 35.7%
inhibition at 20 µM (MCF7 [5]): 40.4%

Compound: COc1ccc2c(c1)-c1ccccc1OC2c1ccc(Br)cc1 (stereo unspecified)
inhibition at 20 µM (A549 [1]): 38.8%
inhibition at 20 µM (BGC-823 [2]): 24.1%
inhibition at 20 µM (PC-3 [3]): 43.9%
inhibition at 20 µM (MDA-MB-231 [4]): 31%
inhibition at 20 µM (MCF7 [5]): 40.5%

Compound: COc1ccc2c(c1)-c1ccccc1OC2c1cccc(C)c1 (stereo unspecified)
inhibition at 20 µM (A549 [1]): 34.4%
inhibition at 20 µM (BGC-823 [2]): 32%
inhibition at 20 µM (PC-3 [3]): 42.3%
inhibition at 20 µM (MDA-MB-231 [4]): 24.9%
inhibition at 20 µM (MCF7 [5]): 33.8%

IC50 (A549 [7]): 17 µM
IC50 (BGC-823 [8]): 13.2 µM
IC50 (PC-3 [9]): 14.3 µM
IC50 (MDA-MB-231 [10]): 18.6 µM
IC50 (MCF7 [6]): 9.94 µM
Compound: COc1cccc(C2Oc3ccccc3-c3cc(OC)ccc32)c1 (stereo unspecified)
inhibition at 20 µM (A549 [1]): 56.3%
inhibition at 20 µM (BGC-823 [2]): 51.9%
inhibition at 20 µM (PC-3 [3]): 57%
inhibition at 20 µM (MDA-MB-231 [4]): 66.1%
inhibition at 20 µM (MCF7 [5]): 69.4%
IC50 (MCF-10A): 58.5 µM
Ratio IC50 [11]: 5.88

IC50 (A549 [7]): 23.5 µM
IC50 (BGC-823 [8]): 26.1 µM
IC50 (PC-3 [9]): 21.4 µM
IC50 (MDA-MB-231 [10]): 15.2 µM
IC50 (MCF7 [6]): 8.92 µM
Compound: COc1ccc2c(c1)-c1ccccc1OC2c1ccccc1OC (stereo unspecified)
IC50 (MCF-10A): 61.6 µM
Ratio IC50 [11]: 6.9

Compound: COc1ccc(C2Oc3ccc(Br)cc3-c3ccccc32)cc1 (stereo unspecified)
inhibition at 20 µM (A549 [1]): 28.9%
inhibition at 20 µM (BGC-823 [2]): 37.8%
inhibition at 20 µM (PC-3 [3]): 36.1%
inhibition at 20 µM (MDA-MB-231 [4]): 36.1%
inhibition at 20 µM (MCF7 [5]): 26.6%

Compound: c1ccc2c(c1)OC(c1cccc3ccccc13)c1ccccc1-2 (stereo unspecified)
inhibition at 20 µM (A549 [1]): 31.5%
inhibition at 20 µM (BGC-823 [2]): 26.1%
inhibition at 20 µM (PC-3 [3]): 34%
inhibition at 20 µM (MDA-MB-231 [4]): 30.6%
inhibition at 20 µM (MCF7 [5]): 26.4%

Compound: COc1ccc2c(c1)-c1ccccc1OC2c1ccc(O[Si](C)(C)C(C)(C)C)cc1 (stereo unspecified)
inhibition at 20 µM (A549 [1]): 31.2%
inhibition at 20 µM (BGC-823 [2]): 25.5%
inhibition at 20 µM (PC-3 [3]): 36.5%
inhibition at 20 µM (MDA-MB-231 [4]): 31%
inhibition at 20 µM (MCF7 [5]): 31.4%

Compound: CCOc1ccc(C2Oc3ccccc3-c3ccccc32)cc1 (stereo unspecified)
inhibition at 20 µM (A549 [1]): 34.9%
inhibition at 20 µM (BGC-823 [2]): 26.4%
inhibition at 20 µM (PC-3 [3]): 34%
inhibition at 20 µM (MDA-MB-231 [4]): 35.6%
inhibition at 20 µM (MCF7 [5]): 32%
